This is an account of results in patent US5330992A, “1-cyclopropyl-4-pyridyl-quinolinones” (priority 1992, dated 1994).

Series [1] addresses T1, human topoisomerase II (Homo sapiens, UniProt P11388).
T1 construct: Topo II was purified from late log phase suspension cultures of HeLa WIS; endogenous in cells; host or cells: HeLa WIS suspension cultures, late log phase (enzyme purified from the cells)
Description: Mammalian Topoisomerase II Inhibition Assay (DNA-topo II complex formation). Format: biochemical. As to conditions: EC50 = concentration with activity equal to EC50 of reference mAMSA; read-out: TopoII Inh. EC50. The protocol: Mammalian Topoisomerase II Inhibition Assay Procedure
The assay quantitates the amount of topo II covalently complexed by DNA at equilibrium during a topo II reaction. This assay determines the potential of a compound to stabilize this complex, which potential is closely related to the cytotoxicity of the compound.
Assays (in duplicate) were assembled at 4° C.
4 ng 3' end labeled (^32 P) pBR322 DNA (10^7 DMP/μg)
The assay mix including the test compound was incubated for 20 minutes at 37° C. The reaction was terminated at 37° C. by the addition of 3 μl 10% SDS followed by the addition of 266 μl 10 mM Tris-Cl pH 7.5, 20 μg/ml BSA, 20 μg/ml calf thymus DNA, 1% SDS.
A SDS/protein precipitate was formed by the addition of 28 μl 2.5M KCl followed by chilling on ice for a minimum of 10 minutes. The precipitate was collected and washed with a Brandell cell harvester on a GFB glass fiber filter membrane as follows. The contents of the assay tube were drawn up into the harvester. The tube was then rinsed 7X with 10 mM Tris-Cl pH 7.5, 1 mM EDTA and 100 mM KCl. […] After drying, CPM was determined by liquid scintillation counting with 5 ml Biofluor (NEN Research Products) or Readisafe (Beckman Instruments Inc.) cocktail.
This solution then was diluted 1/5 into water and serially thereafter in either 0.02N sodium hydroxide or 0.04N hydrogen chloride, respectively. The stock solution and serial dilution of the test compound was stored at -20° C. prior to testing.
Screening of test compound--As an initial screen, the test compound was tested at a final concentration of 2, 20 and 200 μg/ml. The compound was then retested at a range of concentrations (usually 2-3X steps) bridging their approximate EC50 's, as estimated by the prescreen.
Controls--A solvent control which indicates the base level of topo II-DNA complex formed in the absence of the test compound was included in each test. A control, in which topo II was omitted, was included for each test compound at the highest drug concentration tested.
Reference Agent--A dose response curve with mAMSA at 0.01, 0.08, 0.16, 0.32, 1.0 and 10 μg/ml was included in each test.
The maximal DNA-topo II complex formed is taken as that equal to that formed at the nearly saturating dose of mAMSA (10 μg/ml).

Series [2] has as its system P388 murine leukemia cells. Kind of series: Malignant cell cytotoxicity, one-hour exposure (clonogenic survival in soft agar). As to conditions: Mus musculus, 1 hr exposure, read-out: IC50 P388 1 hr. exp. The format is cell-based. The protocol: (§1) Examples of compound I having Topo II activity were tested for malignant cell cytotoxicity. In vitro cytotoxicity was assayed by determining cell survival following exposure of P388 murine leukemia cells to a range of test compound concentrations. Cytotoxicity was quantitated following either a one-hour exposure or continuous exposure of P388 cells to test compound.
(§2) Cytotoxicity following a one-hour exposure of cells to drug was assayed by quantitating clonogenic cell survival according to a published procedure [Freshney, R. L. (1987) Culture of Animal Cells. A Manual of Basic Technique. Wiley-Liss Inc., New York, N.Y., pp. 140-144]. Briefly, following drug exposure cells were plated in soft agar and incubated (37°, 5% CO2) for 7-10 days during which time viable cells form visible colonies. Cytotoxicity following continuous exposure of cells to test compound was assayed by quantitating total P388 cells on a Coultier Counter following a 48-hour co-incubation of test compound with cells. P388 cells were maintained in log phase throughout the duration of cytotoxicity assays.
(§3) The percentage of cells surviving relative to an untreated control was graphed as a function of increasing drug concentration.

Series [3] can be described thus: In vivo antitumor assay, Panc03(sc). Details: species or system mouse. As to conditions: mouse, in vivo. From the text: (§4) Mice: Inbred: C3H/He and NCR-nu; and Hybrids: B6D2Fl (C57BL/6 females X DBA/2 males, CD2Fl (Balb/c females X DBS/2 males) and B6x C3fl (C57BL/6 x C3H) were bred at Wayne State University from strained obtained from the Frederick Cancer Research Facility, Frederick, Md. or purchased from commercial suppliers.
(§5) Tumors: Murine Tumor: P388 and an adriamycin-resistant (ADR) subline P388/ADR leukemia and the following transplantable solid tumors of mice were used for in Vivo testing: B16 melanoma (B16), pancreatic ductal adenocarcinoma No. 03 (Panc 03), colon adenocarcinoma No. 38 (colo 38), mammary ductal adenocarcinoma No. 16/C (Mam16) and an adriamycin-resistantsubline Mam16C/ADR. Human tumor: A single human tumor, mammary carcinoma MX-1 (MX1) was used for in vivo testing. All tumors are in the Developmental Therapeutics Program frozen tumor respository, maintained by the Biological Testing Branch, Frederick Md. Each has a detailed description, code identification number, and list of references at the National Tumor Repository. Murine tumors were maintained in the mouse strain of origin and were transplanted in the appropriate F1 hydrid (or the strain of origin) for therapy trials. Human mammary carcinoma MX-1 MX1) was maintained as a subcutaneous implant in either athymic Swiss (Cr: NIH(S)-nu) or athymic random bred (NCR-nu) mice and transplanted in NCR-nu for therapy trials.
(§6) Chemotherapy: For pancreatic ductal adenocarcinoma No. 3, colon adenocarcinoma No. 38 (colo38), lung carcinoma No. 12 (LC12) and both adriamycin-sensitive (RP) and -resistant ADR) mammary ductal adenocarcinoma No. 16 (Mam16) tumors, the following methods were used to help ensure a more uniform tumor burden per mouse (thus reducing the requirement for greater numbers of mice per group), bilateral tumor implants were used. The animals necessary to begin an experiment were pooled, implanted bilaterally s.c. on day zero with 30-60-mg tumor fragments using a 12-gauge trocar, and again pooled before randomization to the various treatment and control groups. Chemotherapy was started within three days after tumor implantation while the number of cells per mouse was relatively small (1×10^7 […]).
(§7) Quantitative end points used assess antitumor activity included % Increased Life Span (% ILS), Tumor Cell Kill (Log10 kill), and Tumor Growth Inhibition (T/C). Long Term Survivors (45 or 60 day) were excluded from calculations of % ILS and Tumor Cell Kill.
(§8) The log10 cell kill was calculated from the following formula: [formula] where T-C is the tumor difference in the median day of death between the treated (T) and the control (C) groups and Td is the tumor doubling time (in days), the latter estimated from the best fit straight line from a log-linear growth plot of the control-group tumors in exponential growth. The conversion of the T-C values to log10 cell kill is possible because the Td for tumors regrowing post-treatment approximated the Td values of the tumors in untreated control mice.
(§9) Tumors were measured with a caliper once or twice weekly (as needed) until either tumors exceeded 1600 mg or cure was assured. Tumor weights were estimated from two-dimensional measurements: Tumor Weight (mg)=(a×b^2) / 2, where a and b are the tumor length and width (nun) respectively. Measurements were carried out simultaneously in both treatment and control groups. When the control group tumors reached approximately 750-1500 mg in size (median of group), the median tumor weight of each group was determined (including zeros). The T/C value in percent is an indiation of antitumor effectiveness. The % T/C was calculated from the following formula for solid murine tumor models: [formula] where T and C are median tumor weights of the treatment and control groups, respectively. A T/C equal to or less than 42% is considered significant antitumor activity. […]

In series [4] the test system is pancreatic ductal adenocarcinoma No. 03 (Panc 03). Kind of series: In vivo antitumor assay, Panc03(sc). Also on record: species or system mouse.
Description: as §4, §5, §6, §7, §8, §9

For series [5], the system named is P388 murine leukemia cells. Description: Malignant cell cytotoxicity, continuous 48-hour exposure (Coulter Counter). The format is cell-based. As to conditions: Mus musculus, read-out: IC50 P388 cont. exp. The protocol:
as §1, §2, §3

The mark [6] stands for this setting: drug route iv, sc, Ex 18 iv qd 3 bid 4-9, sc bid 10-11, Ex 20 iv qd 3,5 bid 4,6-8, sc bid 9-11 qd 12, read-out: MTD.
[7] abbreviates: drug route iv, sc, Ex 18 iv qd 3 bid 4-9, sc bid 10-11, Ex 20 iv qd 3,5 bid 4,6-8, sc bid 9-11 qd 12.

Like-named read-outs stand apart in the source and are kept apart here. Bounds are passed on as bounds.

T1 sequence (P11388 whole entry): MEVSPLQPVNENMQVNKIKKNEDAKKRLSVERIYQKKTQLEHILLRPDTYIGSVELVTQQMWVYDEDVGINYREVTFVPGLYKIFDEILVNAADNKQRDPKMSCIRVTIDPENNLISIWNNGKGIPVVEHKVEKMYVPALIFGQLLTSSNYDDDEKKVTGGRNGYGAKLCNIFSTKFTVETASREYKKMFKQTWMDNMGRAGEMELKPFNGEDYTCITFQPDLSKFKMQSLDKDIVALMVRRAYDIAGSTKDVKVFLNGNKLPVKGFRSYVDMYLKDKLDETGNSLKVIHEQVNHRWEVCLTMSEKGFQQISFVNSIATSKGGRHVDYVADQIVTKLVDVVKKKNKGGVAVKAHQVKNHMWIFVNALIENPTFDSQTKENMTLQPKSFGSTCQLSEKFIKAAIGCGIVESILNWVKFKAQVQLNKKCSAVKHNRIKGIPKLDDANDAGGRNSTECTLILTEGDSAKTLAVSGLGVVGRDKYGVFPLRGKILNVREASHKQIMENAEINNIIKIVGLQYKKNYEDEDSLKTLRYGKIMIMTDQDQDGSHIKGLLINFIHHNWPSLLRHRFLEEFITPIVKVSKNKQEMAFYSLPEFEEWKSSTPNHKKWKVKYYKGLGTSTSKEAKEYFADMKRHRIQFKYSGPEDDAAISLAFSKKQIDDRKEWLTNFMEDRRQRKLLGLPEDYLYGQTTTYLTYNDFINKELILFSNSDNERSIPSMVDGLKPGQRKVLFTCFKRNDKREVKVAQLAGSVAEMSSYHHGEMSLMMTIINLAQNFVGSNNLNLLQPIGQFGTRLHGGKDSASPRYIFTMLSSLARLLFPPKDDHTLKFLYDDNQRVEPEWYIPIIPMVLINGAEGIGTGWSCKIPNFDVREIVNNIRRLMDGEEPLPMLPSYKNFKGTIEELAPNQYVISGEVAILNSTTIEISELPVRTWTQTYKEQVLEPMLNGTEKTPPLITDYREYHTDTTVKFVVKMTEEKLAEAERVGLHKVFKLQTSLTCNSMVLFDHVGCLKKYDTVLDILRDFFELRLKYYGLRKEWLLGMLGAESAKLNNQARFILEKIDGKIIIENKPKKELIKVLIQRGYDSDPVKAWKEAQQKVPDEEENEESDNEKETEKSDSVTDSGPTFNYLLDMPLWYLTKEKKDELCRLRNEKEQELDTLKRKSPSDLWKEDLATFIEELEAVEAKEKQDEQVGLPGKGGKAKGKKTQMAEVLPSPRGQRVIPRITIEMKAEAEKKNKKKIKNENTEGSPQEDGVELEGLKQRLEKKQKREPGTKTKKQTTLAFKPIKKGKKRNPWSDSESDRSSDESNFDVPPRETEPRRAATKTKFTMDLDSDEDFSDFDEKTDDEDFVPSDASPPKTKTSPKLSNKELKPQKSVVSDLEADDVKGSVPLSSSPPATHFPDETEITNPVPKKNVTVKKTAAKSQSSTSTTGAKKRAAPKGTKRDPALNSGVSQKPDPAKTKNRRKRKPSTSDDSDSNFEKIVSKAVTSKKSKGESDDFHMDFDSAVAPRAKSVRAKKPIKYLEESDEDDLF

For the compound `Cc1cc(-c2c(F)cc3c(=O)c(Cc4cccc(F)c4OCc4ccccc4)cn(C4CC4)c3c2F)cc(C)n1` [Example 20], the EC50 in series [1] was > 90 µM. The IC50 in series [2] came to 250 nM. In series [3] (setting [6]), the MTD was found to be 336 mg/kg. In series [4] (setting [7]), the T/C % came out at 80%.

Turning to `Cc1cc(-c2c(F)cc3c(=O)c(Cc4ccccc4)cn(C4CC4)c3c2F)cc(C)n1` [Example 3], the EC50 in series [1] was found to be 3.9 µM. Moreover, the IC50 in series [2] was 7300 nM; in series [5], 7.1 µM. In addition, the MTD in series [3] (drug route sc, qd 3-12, footnote 1, read-out: MTD (MTD not achieved, maximum dose tested)) is > 3750 mg/kg. Also, the T/C % in series [4] (drug route sc, Ex 3 qd 3-12, Ex 26 qd 3,5-7 bid 4) was > 100%.

Consider `Cc1cc(-c2c(F)cc3c(=O)c(Cc4ncc[nH]4)cn(C4CC4)c3c2F)cc(C)n1` [Example 18], for which the EC50 in series [1] was determined as 1.1 µM. The IC50 in series [2] amounted to 1100 nM. In addition, in series [3] (setting [6]), the MTD turned out to be 88 mg/kg. The T/C % in series [4] (setting [7]) is recorded as 21%.
